Activity calls are given as the source filed them.
How the values were obtained:
[1] = molecular target: T1, Apoptotic protease-activating factor 1 (Homo sapiens, UniProt O14727); assay: SAR analysis of small molecule Activators of Apaf-1 in a Fluorescent assay.; assay type: functional; conditions: read-out: EC50_Mean;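 also: caspase-3 cleavage of fluorogenic Rh110 DEVD substrate downstream of apoptosome activation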
T1 sequence (O14727 whole entry): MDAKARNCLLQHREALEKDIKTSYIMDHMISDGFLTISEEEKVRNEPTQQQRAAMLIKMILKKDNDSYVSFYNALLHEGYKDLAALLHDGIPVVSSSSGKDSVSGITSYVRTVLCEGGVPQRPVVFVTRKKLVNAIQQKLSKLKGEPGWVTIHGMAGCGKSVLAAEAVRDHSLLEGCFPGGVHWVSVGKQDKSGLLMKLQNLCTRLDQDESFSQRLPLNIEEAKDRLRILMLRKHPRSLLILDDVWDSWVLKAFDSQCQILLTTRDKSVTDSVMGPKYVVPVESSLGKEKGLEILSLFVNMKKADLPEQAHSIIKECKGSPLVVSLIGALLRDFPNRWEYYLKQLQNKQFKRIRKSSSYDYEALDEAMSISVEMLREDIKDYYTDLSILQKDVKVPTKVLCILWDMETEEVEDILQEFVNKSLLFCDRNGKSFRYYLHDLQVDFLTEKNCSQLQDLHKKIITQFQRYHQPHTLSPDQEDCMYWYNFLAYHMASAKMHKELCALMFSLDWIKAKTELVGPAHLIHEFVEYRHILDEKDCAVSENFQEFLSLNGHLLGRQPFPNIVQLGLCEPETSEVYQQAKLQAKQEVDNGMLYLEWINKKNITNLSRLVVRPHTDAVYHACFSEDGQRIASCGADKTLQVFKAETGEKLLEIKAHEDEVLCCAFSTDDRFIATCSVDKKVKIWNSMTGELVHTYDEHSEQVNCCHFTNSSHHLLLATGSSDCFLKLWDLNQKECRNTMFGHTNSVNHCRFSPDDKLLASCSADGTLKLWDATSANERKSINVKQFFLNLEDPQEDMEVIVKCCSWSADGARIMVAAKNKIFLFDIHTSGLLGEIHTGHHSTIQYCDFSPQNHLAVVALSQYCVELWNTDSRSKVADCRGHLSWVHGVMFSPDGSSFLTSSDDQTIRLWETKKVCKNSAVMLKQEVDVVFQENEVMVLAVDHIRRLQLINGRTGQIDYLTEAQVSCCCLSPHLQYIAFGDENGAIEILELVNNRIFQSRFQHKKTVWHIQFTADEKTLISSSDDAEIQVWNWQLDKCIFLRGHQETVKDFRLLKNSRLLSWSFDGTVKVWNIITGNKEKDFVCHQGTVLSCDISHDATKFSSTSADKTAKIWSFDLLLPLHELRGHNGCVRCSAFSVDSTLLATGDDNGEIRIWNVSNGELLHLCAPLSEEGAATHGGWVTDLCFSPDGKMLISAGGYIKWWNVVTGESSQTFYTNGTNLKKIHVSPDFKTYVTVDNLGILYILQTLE

[2] = Luminescence Cell-Based Dose Retest to Confirm Inhibitors of Cancer Stem Cells. [Related pubchem assays (depositor defined):AID2717, AID2721]; assay type: functional; conditions: Homo sapiens
[3] = test system: Vero; assay: cells; assay type: functional; conditions: Chlorocebus sabaeus
[4] = molecular target: Hepatocyte nuclear factor 4-alpha (Homo sapiens, UniProt P41235); assay type: functional, cell-based;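 also: biochemical luminescence-based dose-response counterscreen measuring inhibition of HNF4 dimerization, run alongside a screen for blockers of ABHD5–perilipin-5 interaction; split luciferase complementation of HNF4 fusion proteins in cell lysate measuring dimerization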
Hepatocyte nuclear factor 4-alpha, sequence (P41235 whole entry, the tested form may be a part): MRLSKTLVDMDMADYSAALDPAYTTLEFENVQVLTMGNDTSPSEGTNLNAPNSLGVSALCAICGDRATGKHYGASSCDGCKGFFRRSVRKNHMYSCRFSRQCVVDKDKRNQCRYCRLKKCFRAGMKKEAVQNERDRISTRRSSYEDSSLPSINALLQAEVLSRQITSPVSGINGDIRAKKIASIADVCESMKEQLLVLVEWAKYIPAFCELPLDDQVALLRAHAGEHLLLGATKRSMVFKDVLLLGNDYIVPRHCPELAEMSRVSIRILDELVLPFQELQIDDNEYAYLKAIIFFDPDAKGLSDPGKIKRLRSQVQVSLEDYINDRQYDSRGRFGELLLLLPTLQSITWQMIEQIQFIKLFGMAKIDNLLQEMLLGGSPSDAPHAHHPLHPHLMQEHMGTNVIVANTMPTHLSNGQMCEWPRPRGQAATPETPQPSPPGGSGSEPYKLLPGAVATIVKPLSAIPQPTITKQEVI

[5] = molecular target: Induced myeloid leukemia cell differentiation protein Mcl-1 (Homo sapiens, UniProt Q07820); assay: MCL1-BIM BH3 interaction inhibitors, dose response, biochemical, fluorescence polarization, BIM-BH3 peptide, 1536-well (AID 2217)
Induced myeloid leukemia cell differentiation protein Mcl-1, sequence (Q07820 whole entry): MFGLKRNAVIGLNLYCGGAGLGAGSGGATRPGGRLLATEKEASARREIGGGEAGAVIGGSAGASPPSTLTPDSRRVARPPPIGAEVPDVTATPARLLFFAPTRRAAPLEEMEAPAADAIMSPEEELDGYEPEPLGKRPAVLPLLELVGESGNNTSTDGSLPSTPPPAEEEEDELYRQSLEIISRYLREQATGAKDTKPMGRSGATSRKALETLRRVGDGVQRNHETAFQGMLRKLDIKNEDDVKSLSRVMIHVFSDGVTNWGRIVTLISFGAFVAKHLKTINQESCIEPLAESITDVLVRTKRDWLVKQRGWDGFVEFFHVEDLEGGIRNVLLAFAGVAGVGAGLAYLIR

[6] = molecular target: Bcl-2-like protein 1 (Homo sapiens, UniProt Q07817); assay: BCL-XL inhibitors, dose response, selectivity assay for MCL1 inhibitor project, biochemical, fluorescence polarization, 1536-well (AID 2218)
Bcl-2-like protein 1, sequence (Q07817 whole entry): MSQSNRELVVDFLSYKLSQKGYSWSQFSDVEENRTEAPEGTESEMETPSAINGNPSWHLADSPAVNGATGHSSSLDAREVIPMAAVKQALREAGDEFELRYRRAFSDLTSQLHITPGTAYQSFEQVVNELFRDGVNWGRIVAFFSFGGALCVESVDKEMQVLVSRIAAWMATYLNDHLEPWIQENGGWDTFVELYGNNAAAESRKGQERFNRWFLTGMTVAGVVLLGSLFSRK

[7] = molecular target: DNA (cytosine-5)-methyltransferase 1 (Homo sapiens, UniProt P26358); assay: DNMT1 methyltransferase inhibitors, confirmation, biochemical, fluorescent molecular beacon (AID 602386); assay type: functional
DNA (cytosine-5)-methyltransferase 1, sequence (P26358 whole entry): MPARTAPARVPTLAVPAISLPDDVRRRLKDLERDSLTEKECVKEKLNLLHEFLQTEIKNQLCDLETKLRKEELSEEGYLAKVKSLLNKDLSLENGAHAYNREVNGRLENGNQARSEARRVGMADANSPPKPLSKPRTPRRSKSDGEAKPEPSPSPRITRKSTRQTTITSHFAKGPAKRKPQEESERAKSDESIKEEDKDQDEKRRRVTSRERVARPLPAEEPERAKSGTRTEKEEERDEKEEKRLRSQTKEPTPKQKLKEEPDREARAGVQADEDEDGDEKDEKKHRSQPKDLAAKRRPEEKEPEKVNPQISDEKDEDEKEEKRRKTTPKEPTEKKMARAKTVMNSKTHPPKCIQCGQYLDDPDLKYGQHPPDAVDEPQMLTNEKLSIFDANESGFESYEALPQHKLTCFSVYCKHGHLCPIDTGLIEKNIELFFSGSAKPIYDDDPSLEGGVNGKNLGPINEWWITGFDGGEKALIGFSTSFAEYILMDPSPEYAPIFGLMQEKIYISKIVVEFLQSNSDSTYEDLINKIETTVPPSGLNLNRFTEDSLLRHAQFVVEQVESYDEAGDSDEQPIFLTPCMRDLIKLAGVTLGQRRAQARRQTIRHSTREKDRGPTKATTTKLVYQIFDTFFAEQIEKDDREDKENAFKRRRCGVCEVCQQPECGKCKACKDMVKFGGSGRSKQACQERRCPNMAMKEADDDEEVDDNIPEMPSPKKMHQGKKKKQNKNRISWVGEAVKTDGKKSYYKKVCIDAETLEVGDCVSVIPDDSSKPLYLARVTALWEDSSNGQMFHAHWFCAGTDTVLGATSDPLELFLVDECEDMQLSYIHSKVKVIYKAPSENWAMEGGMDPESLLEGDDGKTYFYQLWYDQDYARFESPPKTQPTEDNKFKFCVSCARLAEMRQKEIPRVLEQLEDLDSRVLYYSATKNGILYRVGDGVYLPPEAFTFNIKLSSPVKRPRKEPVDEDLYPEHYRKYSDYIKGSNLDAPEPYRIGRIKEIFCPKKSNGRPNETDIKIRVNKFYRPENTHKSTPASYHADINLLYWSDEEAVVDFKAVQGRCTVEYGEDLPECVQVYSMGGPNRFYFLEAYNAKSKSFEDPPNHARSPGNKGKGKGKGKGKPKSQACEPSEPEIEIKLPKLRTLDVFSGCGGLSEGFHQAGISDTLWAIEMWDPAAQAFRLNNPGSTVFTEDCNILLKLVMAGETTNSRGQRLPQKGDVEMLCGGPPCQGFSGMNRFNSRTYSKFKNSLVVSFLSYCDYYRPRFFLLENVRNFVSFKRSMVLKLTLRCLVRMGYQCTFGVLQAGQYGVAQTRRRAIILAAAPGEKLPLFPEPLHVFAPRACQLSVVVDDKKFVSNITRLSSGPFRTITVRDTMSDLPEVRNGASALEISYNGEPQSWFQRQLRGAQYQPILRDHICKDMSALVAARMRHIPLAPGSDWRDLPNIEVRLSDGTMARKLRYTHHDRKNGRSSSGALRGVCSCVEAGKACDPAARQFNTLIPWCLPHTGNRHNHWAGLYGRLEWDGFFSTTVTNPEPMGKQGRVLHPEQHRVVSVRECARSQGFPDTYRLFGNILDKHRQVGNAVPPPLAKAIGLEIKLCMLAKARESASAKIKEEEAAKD

[8] = molecular target: T2, Small ubiquitin-related modifier 1 (Homo sapiens, UniProt P63165); assay: inhibitors of SUMO1 peptide binding, dose response, biochemical, fluorescence polarization, uHTS hits (AID 624382); assay type: functional; conditions: read-out: IC50_Mean
T2 sequence (P63165 whole entry): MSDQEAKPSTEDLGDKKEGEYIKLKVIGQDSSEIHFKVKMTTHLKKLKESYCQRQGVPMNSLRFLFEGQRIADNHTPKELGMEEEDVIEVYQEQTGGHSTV

[9] = molecular target: T2, Small ubiquitin-related modifier 1; assay: inhibitors of SUMO1 partner interactions, dose response, biochemical, FRET (AID 624383); assay type: functional; conditions: read-out: IC50_Mean
[10] = molecular target: Nuclear receptor subfamily 5 group A member 2 (Homo sapiens, UniProt O00482); assay type: functional, cell-based;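 also: HEK293T cells transfected with LRH-1 and a StAR promoter luciferase reporter; potency for inhibitors that lower LRH-1 driven reporter light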
Nuclear receptor subfamily 5 group A member 2, sequence (O00482 whole entry): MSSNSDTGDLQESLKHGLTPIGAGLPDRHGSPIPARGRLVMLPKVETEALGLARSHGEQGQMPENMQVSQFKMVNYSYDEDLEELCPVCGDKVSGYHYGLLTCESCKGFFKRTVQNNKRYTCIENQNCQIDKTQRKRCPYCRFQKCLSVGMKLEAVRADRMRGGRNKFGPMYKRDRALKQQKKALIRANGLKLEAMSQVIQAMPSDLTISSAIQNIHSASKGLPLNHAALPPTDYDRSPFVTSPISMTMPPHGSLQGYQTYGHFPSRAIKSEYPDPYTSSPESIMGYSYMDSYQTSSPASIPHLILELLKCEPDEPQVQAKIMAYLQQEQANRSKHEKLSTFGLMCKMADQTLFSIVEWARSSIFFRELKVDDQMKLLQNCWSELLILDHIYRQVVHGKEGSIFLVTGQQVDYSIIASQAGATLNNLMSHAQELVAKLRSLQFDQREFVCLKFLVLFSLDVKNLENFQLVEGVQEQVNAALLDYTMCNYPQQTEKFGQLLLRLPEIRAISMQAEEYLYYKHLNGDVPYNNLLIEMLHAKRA

[11] = molecular target: Steroidogenic factor 1 (Homo sapiens, UniProt Q13285); assay: Counterscreen for inverse agonists of the liver receptor homolog-1 (LRH-1; NR5A2): Luminescence-based cell-based high throughput dose response assay to identify inverse agonists of the Steroidogenic Factor 1 Nuclear Receptor (SF1; NR5A1).; assay type: functional
Steroidogenic factor 1, sequence (Q13285 whole entry): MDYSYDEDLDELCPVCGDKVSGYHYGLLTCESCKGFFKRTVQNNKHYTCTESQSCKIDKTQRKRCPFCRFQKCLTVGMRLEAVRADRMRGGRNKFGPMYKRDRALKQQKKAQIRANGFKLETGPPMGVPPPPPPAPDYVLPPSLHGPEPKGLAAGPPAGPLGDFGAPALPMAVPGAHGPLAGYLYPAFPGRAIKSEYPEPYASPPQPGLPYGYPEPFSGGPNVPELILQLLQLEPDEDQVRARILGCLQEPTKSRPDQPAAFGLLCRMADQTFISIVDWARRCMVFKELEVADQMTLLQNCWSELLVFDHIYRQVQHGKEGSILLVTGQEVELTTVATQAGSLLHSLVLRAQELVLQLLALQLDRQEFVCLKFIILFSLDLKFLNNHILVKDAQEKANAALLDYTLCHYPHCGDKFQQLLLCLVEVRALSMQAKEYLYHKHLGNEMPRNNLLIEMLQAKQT

[12] = StAR promoter reporter inhibition counter-screen, dose response, counter-screen for LRH-1 inverse agonist project, cell-based, luminescence, luciferase reporter (AID 651969); assay type: functional
[13] = molecular target: Beta Lactamase (Pseudomonas aeruginosa, UniProt Q932Y6);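 also: confirmatory high-throughput screen measuring VIM-2 metallo-beta-lactamase inhibition by epi-absorbance in dose response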
Beta Lactamase, sequence (Q932Y6 whole entry): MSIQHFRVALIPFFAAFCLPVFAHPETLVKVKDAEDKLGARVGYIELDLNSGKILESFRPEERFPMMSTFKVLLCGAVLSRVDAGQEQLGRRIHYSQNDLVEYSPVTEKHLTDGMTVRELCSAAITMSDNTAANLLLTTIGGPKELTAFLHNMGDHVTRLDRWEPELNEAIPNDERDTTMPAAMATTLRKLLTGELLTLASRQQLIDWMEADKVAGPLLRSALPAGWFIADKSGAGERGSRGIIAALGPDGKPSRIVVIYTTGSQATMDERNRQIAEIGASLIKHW

[14] = molecular target: Beta-lactamase (Pseudomonas aeruginosa, UniProt Q79MP6);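 also: biochemical dose-response test of metallo-beta-lactamase enzyme inhibition, read out by epi-absorbance; purified recombinant IMP-1 metallo-beta-lactamase with nitrocefin as substrate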
Beta-lactamase (Pseudomonas aeruginosa, UniProt Q79MP6), sequence (Q79MP6 whole entry): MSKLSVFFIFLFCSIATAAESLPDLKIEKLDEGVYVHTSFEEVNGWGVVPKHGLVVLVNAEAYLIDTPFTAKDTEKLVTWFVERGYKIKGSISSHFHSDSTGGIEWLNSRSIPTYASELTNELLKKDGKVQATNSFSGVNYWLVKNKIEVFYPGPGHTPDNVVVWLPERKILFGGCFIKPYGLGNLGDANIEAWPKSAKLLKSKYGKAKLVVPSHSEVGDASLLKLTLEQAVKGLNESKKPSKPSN

[15] = molecular target: Beta-lactamase (Salmonella choleraesuis (strain SC-B67), UniProt Q5J463)
Beta-lactamase (Salmonella choleraesuis (strain SC-B67), UniProt Q5J463), sequence (Q5J463 whole entry): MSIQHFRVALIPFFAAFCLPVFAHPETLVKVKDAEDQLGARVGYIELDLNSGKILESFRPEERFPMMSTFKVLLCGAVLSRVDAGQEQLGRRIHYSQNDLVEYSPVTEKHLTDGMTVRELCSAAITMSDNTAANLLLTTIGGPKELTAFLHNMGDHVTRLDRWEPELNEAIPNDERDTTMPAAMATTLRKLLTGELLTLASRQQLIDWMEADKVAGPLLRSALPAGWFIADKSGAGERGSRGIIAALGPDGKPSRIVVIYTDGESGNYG
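For AC50 in this document: cells exposed to compound for roughly 70 hours or longer before luminescence read.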

Cc1nn(Cc2ccccc2)c(C)c1CCC(=O)O
EC50 [1]: > 100 µM (inactive)

Cc1ccc(/C=C/C(=O)c2cc(Br)ccc2OC(=O)c2ccco2)cc1
AC50 [2]: 4.76 µM (active)
CC50 [3]: 24.4 µM (active)
IC50 [4]: 1.96 µM (active)

CCOc1ccc(NC(=O)c2cccc(-n3cccc3)c2)cc1S(=O)(=O)N1CCOCC1
IC50 [5]: > 4.03 µM (active)
IC50 [6]: > 109 µM (not active)
IC50 [7]: 9.08 µM (active)
IC50 [8]: > 66.6 µM (inactive)
IC50 [9]: 3.29 µM (active)

CC1(C(=O)NCc2ccc3c(c2)OCO3)CCN1C(=O)Cc1ccc(Cl)cc1Cl (stereo not given)
IC50 [10]: 7.36 µM (active)
IC50 [11]: 3.32 µM (active)
IC50 [12]: 35.9 µM (inactive)

C/C(=N\O)c1ccc2c3c([nH]c2c1)CCCC3
IC50 [13]: > 59.6 µM (inactive)
IC50 [14]: > 59.6 µM (inactive)
IC50 [15]: > 59.6 µM (inactive)

Reference: ChEMBL document CHEMBL1201862, “PubChem BioAssay data set” (2004)
